These results are taken from patent US20240050513A1, “COMPOSITION FOR PREVENTING, AMELIORATING, OR TREATING DISEASE CAUSED BY PROTEIN NITRATION […] WITH TERMINAL TYROSINE AS EFFECTIVE COMPONENT” (INDUSTRY-ACADEMIC COOPERATION FOUNDATION GYEONGSANG …, priority 2021, published 2024).

For assay [1], the system named is glutamine synthetase (GS). The experiment in a line: GS activity and GS tyrosine nitration in PFC, chronic immobilization stress model. Format: in vivo, C57BL/6 mice. Conditions: stress group. As for the experimental part:
Using the prefrontal cortex (PFC) lysate samples from mice obtained after the completion of chronic immobilization stress, GS activity and GS expression level were measured by following the method described above.
Furthermore, the level of tyrosine nitration within GS was measured by using immunoprecipitation (IP)-WB. The immunoprecipitation analysis of tyrosine-nitrated GS was performed using an anti-nitrotyrosine antibody (ab61392, Abcam) and Protein A/G PLUS-Agarose (Santa Cruz) according to the manufacturer's protocol.

A further assay has as its system 3xTG-AD mice. The experiment in a line: Cognitive function (ORT) and hippocampal ROS/RNS in Alzheimer's disease model. Conditions: 1xYQ diet. In kind it is in vivo, mouse. As for the experimental part:
To analyze the long-term memory capacity of animals following the peptide diet of the present invention, both the object recognition test (ORT) and object location recognition test (OLT) were conducted (FIG. 1). The tests consisted of three phases: habituation, familiarization, and test. During the habituation phase, the animals were acclimated to the testing apparatus for 10 minutes per day over two days. On the third day at the familiarization phase, the animals were allowed to explore two identical objects for 10 minutes. Subsequently, on the fourth day at the test phase, one of the objects was replaced with a novel object, and the animals were allowed to explore for 10 minutes, with result recorded during the initial 5 minutes was used as test data. The object recognition test (ORT) index was calculated using the following formula.
Discrimination index=(N−F)/(N+F) • N: Time spent for exploring new object • F: Time spent for exploring familiar object
The cognitive function of a 2-month-old mouse 3xTG-AD, which is a mouse model of modified Alzheimer's disease gene, and a 2-month-old normal C57BL/6 mouse was examined. After the examination, both were divided into two groups, and they were fed with either a normal diet (ND) or a diet supplemented with tyrosine-containing peptide (1xYQ). […]

The subject of assay [2] is glutamatergic neurons of 3xTG-vGluT2-Cre::tdTomato mice. Put plainly: sEPSC of glutamatergic neurons in mPFC of fluorescent labeled Alzheimer's disease model. In kind it is in vivo, mouse. Conditions: 1xYQ diet from 2 months, measured at 6 to 8 months.
Protocol: At two months of age, 3xTG-vGluT2-Cre::tdTomato mice were fed with diet supplemented with tyrosine-containing peptide (1xYQ). At 6 to 8 months of age, the spontaneous excitatory postsynaptic current (sEPSC) was measured to evaluate the activity of glutamatergic neurons. For recording membrane currents, a 200 μm-thick brain cross-section was placed in a recording chamber filled with artificial cerebrospinal fluid at a rate of 1.5 to 2 ml/min, and, under a holding potential of −70 mV, whole-cell voltage clamp recordings were obtained from visually identified glutamatergic neurons in the medial prefrontal cortex (mPFC). Glutamatergic currents were isolated by the addition of picrotoxin (100 μM). All recordings were performed at 30±2° C., and, as the pipette solution, a solution containing 30 mM KCl, 5 mM CaCl2, 10 mM EGTA, 10 mM HEPES, 2 mM MgATP, 0.5 mM Na2GTP, and 5 mM phosphocreatine was used.
Assay [3] concerns ischemic stroke Mongolian gerbils. The experiment in a line: Neuronal cell death in ischemic stroke model (cell count, immunohistochemical staining). Format: in vivo. The protocol:
Three-month-old male Mongolian gerbils were induced with general anesthesia using 3% isoflurane and the anesthesia was maintained with 2.5% isoflurane gas. After sterilizing the neck area, a midline incision was made to expose both common carotid arteries, and microvessel clip was used to block the blood flow for 5 minutes, inducing cerebral ischemia to simulate a stroke. During the application of the microvessel clip, the body temperature was maintained at 37.0±0.5° C., and animals undergoing sham operation were used as the control group.
After inducing ischemia, the animal was, under reperfusion, intraperitoneally administered with YQ peptide at a dose of 200 mg/kg, three times every 24 hours. On the fourth day, the animal was sacrificed, and brain tissues were collected to measure the number of dead neuronal cell.
Immunohistochemical staining was carried out to examine changes in neuronal cells and microglial cells and also a change in related factors in the hippocampus of an ischemic brain injury animal model. Specifically, after inducing ischemia, YQ peptide was administered intraperitoneally three times every 24 hours at a dose of 200 mg/kg under reperfusion. A control group was administered with a vehicle (i.e., 0.9% saline) instead of the peptide. On the 4th day, the animal was sacrificed, and brain tissue was collected and fixed with 4% paraformaldehyde at 4° C. Subsequently, the tissue was added to sucrose solutions of increasing concentrations (i.e., 10%, 20%, and 30%), frozen using liquid nitrogen, and sectioned into continuous slice specimens with a thickness of 30 μm. The specimens were stored in a cryoprotective solution at −20° C. The brain tissue specimen was rinsed three times for 10 minutes each with 0.01 M PBS and treated with 0.3% H2O2 for 30 minutes to eliminate endogenous peroxidase present in the tissue. To prevent any nonspecific immune reaction, the specimen was incubated for 30 minutes with 5% normal serum corresponding to each antibody. […]

Assay [4] concerns renal ischemia-reperfusion C57BL/6 mice. Conditions: 100 mg/kg oral, 24 hours of reperfusion. The protocol: Male C57BL/6 mice weighing 23 to 25 g were housed in a germ-free facility with controlled temperature and humidity. They were allowed free access to water and food. […] Renal ischemia was induced by midline laparotomy and occlusion of both renal pedicles using a Müller atraumatic vascular clamp for 25 minutes, followed by removal of the clamp for reperfusion. Control group (sham) underwent the same surgical procedures except the induction of ischemia using clamp. After 24 hours of reperfusion, the mice were sacrificed, and blood was collected from the heart, and the kidney tissue was harvested.
The collected blood was centrifuged at 3,000 rpm for 15 minutes to separate the serum, and the serum creatinine level, an indicator for evaluating kidney damage, was measured using the Jaffe method. The Jaffe method involves measuring the absorbance of the serum sample at 510 nm wavelength after reacting it with picric acid and then terminating the reaction with 60% acetic acid followed by measurement of absorbance, and calculating the concentration of creatinine in mg/mL units based on the difference in absorbance.
The total RNA was extracted from the kidney tissues using the Trizol method, and cDNA was synthesized using the RevertAid Reverse Transcription System (ThermoFisher). Quantitative PCR (qPCR) for inflammatory cytokines (IL-1β, IL-6, and MCP-1) was performed using the iQ SYBR Green Supermix (Bio-Rad) on the CFX Connect Real-Time PCR system (Bio-Rad). The relative amount of the target mRNA, normalized to GAPDH, was analyzed using the […].
The kidney tissue was homogenized in RIPA buffer, and protein quantification was performed using the BCA method. Western blot was then carried out using antibodies against nitrotyrosine and 4-hydroxynonenal (4-HNE), i.e., a product of lipid peroxidation.

On to tyrosine-glutamine [YQ], for which the “tyrosine nitration level of GS” value in assay [1] (IP-WB, peptide diet vs normal diet) was “statistically significant decrease”. For the same substance, the GS activity entry in assay [1] (peptide diet (330 mg/kg) vs normal diet) is listed as “statistically significant increase”. Besides, the “cognitive function (ORT)” value in the assay with 3xTG-AD mice (dementia animal model 3xTG-AD, 2 to 8 months of age) is listed as “slight improvement”. Besides, the “ROS/RNS level in the hippocampal tissues” value in the assay on 3xTG-AD mice (dementia animal model) is given as “decrease”. The “glutamatergic neuronal activity (sEPSC)” value in assay [2] is “increased”. In addition, the “number of neuronal cells” value in assay [3] (200 mg/kg i.p. three times every 24 hours, fourth day) was “increase”. In assay [3] (hippocampal CA1 region, 200 mg/kg i.p. three times every 24 hours, 4th day), the “cells found to survive compared to the sham operation group” value is “approximately 60.7%”. Further, the “morphological changes in glial cells” value in assay [3] (immunohistochemical staining, 200 mg/kg i.p. three times) is “minimal morphological changes”. Further, in assay [4] (Western blot), the “lipid peroxidation (4-HNE) in the kidney tissue” value was “significantly reduced” and the “proteins with nitrated tyrosine in the kidney tissue” value is “significantly reduced”. In addition, in assay [4] (qPCR), the “increase in expression level of IL-1β in kidney tissue” value is listed as “statistically significantly inhibited”, the “increase in expression level of IL-6 in kidney tissue” value is “statistically significantly inhibited” and the “increase in expression level of MCP-1 in kidney tissue” value was “statistically significantly inhibited”.
